Source: DBAASP
In brackets after ≈: the same amount, converted by molar mass. Several values for one entry are separate records, joined by “and”; a condition that tells them apart may be missing. Equal values may be shown once. Blank lines part the entries; values can stand above or below the molecule they belong to.

Key:
Experiment in all cases: ≥ marks a high value that may be exact or a test limit, other limits are often not marked, values filed in µg/mL are converted to µM
[1] = test system: Pseudomonas aeruginosa ATCC 15692
Enterobacter cloacae = test system: Enterobacter cloacae
[2] = test system: Klebsiella pneumoniae NDM-1
[3] = test system: Staphylococcus aureus ATCC 1717
Morganella morganii = test system: Morganella morganii
Escherichia coli O157:H7 = test system: Escherichia coli O157:H7
Enterococcus faecalis = test system: Enterococcus faecalis
Citrobacter freundii = test system: Citrobacter freundii
[4] = test system: Salmonella typhimurium PY1
Klebsiella oxytoca = test system: Klebsiella oxytoca
Escherichia coli NDM-1 = test system: Escherichia coli NDM-1
[5] = test system: Bacillus subtilis ATCC 23857
[6] = test system: Bacillus cereus ATCC 14579
[7] = test system: Enterococcus faecalis 1F-1
[8] = test system: Enterococcus faecium 4W-9
[9] = test system: Bacillus subtilis ATCC 6051
[10] = test system: Escherichia coli ATCC 25922
[11] = test system: Pseudomonas aeruginosa PAO1
[12] = test system: Bacillus amyloliquefaciens ATCC 23842
Enterococcus faecalis A4 = test system: Enterococcus faecalis A4
[13] = test system: Proteus mirabilis ATCC 35659
[14] = test system: Bacillus licheniformis ATCC 14580
[15] = test system: Enterococcus faecium 5F-10
Staphylococcus aureus MR = test system: Staphylococcus aureus MR
[16] = test system: Salmonella enterica ATCC H9812
[17] = test system: Staphylococcus aureus ATCC 29213
[18] = test system: Staphylococcus aureus 215
[19] = test system: Staphylococcus aureus ATCC 25923
[20] = test system: Acinetobacter baumannii KCTC 2508
[21] = test system: Bacillus subtilis KCTC 2217
[22] = test system: Staphylococcus aureus CCARM 3089
[23] = test system: Enterococcus faecium ATCC 51559
[24] = test system: Bacillus subtilis KCTC 3068
[25] = test system: Pseudomonas aeruginosa CCARM 2095
[26] = test system: Staphylococcus aureus CCARM 3095
[27] = test system: Staphylococcus epidermidis KCTC 1917
[28] = test system: Pseudomonas aeruginosa KCTC 1637
[29] = test system: Escherichia coli KCTC 1682
[30] = test system: Salmonella typhimurium KCTC 1926
[31] = test system: Staphylococcus aureus KCTC 1621
[32] = test system: Staphylococcus aureus CCARM 3090
[33] = test system: Pseudomonas aeruginosa ATCC 21630
[34] = test system: Salmonella enterica subsp. enterica serovar Typhimurium ATCC 14028
Escherichia coli 078 = test system: Escherichia coli 078
[35] = test system: Pseudomonas aeruginosa ATCC 27853
[36] = test system: Pseudomonas aeruginosa ATCC 10419
[37] = test system: Enterococcus faecalis ATCC 29212
Escherichia coli ER2566 = test system: Escherichia coli ER2566
[38] = test system: Staphylococcus epidermidis ATCC 12228
Escherichia coli UB1005 = test system: Escherichia coli UB1005
[39] = test system: Pseudomonas aeruginosa ATCC 21625
[40] = test system: Bacillus subtilis ATCC 11060
[41] = test system: Salmonella enterica subsp. enterica serovar Pullorum C79-13
[42] = test system: Escherichia coli CMCC 44102
Escherichia coli K88 = test system: Escherichia coli K88
[43] = test system: Escherichia coli CVCC 1515
[44] = test system: Salmonella enterica subsp. enterica serovar Typhimurium C77-31

Structure (SMILES): CC[C@H](C)[C@H](NC(=O)CN)C(=O)N[C@H](C(=O)N[C@@H](C)C(=O)NCC(=O)N[C@H](C(=O)N[C@H](C(=O)N[C@H](C(=O)N[C@@H](CCCCN)C(=O)N[C@H](C(=O)N[C@@H](CCCCN)C(=O)N[C@@H](CCCCN)C(N)=O)[C@@H](C)CC)[C@@H](C)CC)[C@@H](C)CC)[C@@H](C)CC)[C@@H](C)CC [GIIAGIIIKIKK]
MIC [1]: ≥ 64 µM | MIC (Enterobacter cloacae): 22.6 µM (≈ 28.6 µg/mL) | MIC [2]: 22.6 µM (≈ 28.6 µg/mL) | MIC [3]: ≥ 128 µM | MIC (Morganella morganii): ≥ 128 µM | MIC (Escherichia coli O157:H7): ≥ 32 µM | MIC (Enterococcus faecalis): 16 µM (≈ 20.3 µg/mL) | MIC (Citrobacter freundii): 8 µM (≈ 10.1 µg/mL) | MIC [4]: ≥ 64 µM | MIC (Klebsiella oxytoca): 16 µM (≈ 20.3 µg/mL) | MIC (Escherichia coli NDM-1): 16 µM (≈ 20.3 µg/mL) | MIC [5]: 8 µM (≈ 10.1 µg/mL)

Structure (SMILES): CC(C)C[C@H](NC(=O)[C@H](CC(C)C)NC(=O)[C@@H](N)CCC(=O)O)C(=O)N[C@@H](CO)C(=O)N[C@@H](CCCN=C(N)N)C(=O)N[C@H](C(=O)N[C@@H](CC(=O)O)C(=O)O)C(C)C [ELLSRVD]
MIC [6]: ≥ 77 µM | MIC [7]: ≥ 154 µM | MIC [8]: ≥ 154 µM | MIC [9]: ≥ 77 µM | MIC [10]: > 154 µM | MIC [11]: > 154 µM | MIC [12]: ≥ 77 µM | MIC (Enterococcus faecalis A4): ≥ 154 µM | MIC [13]: ≥ 154 µM | MIC [14]: ≥ 77 µM | MIC [15]: ≥ 154 µM | MIC (Staphylococcus aureus MR): 3.4 µM (≈ 2.83 µg/mL) | MIC [16]: ≥ 154 µM | MIC [17]: 4.81 µM (≈ 4 µg/mL) | MIC [18]: 4.81 µM (≈ 4 µg/mL)

Structure (SMILES): CC(C)C[C@H](NC(=O)[C@H](CCCCN)NC(=O)[C@H](CCCCN)NC(=O)[C@H](CC(C)C)NC(=O)[C@H](CC(C)C)NC(=O)[C@H](CCCCN)NC(=O)[C@H](CCCCN)NC(=O)[C@H](CC(C)C)NC(=O)[C@H](CC(C)C)NC(=O)[C@@H]1CCCN1C(=O)[C@H](CCCCN)NC(=O)[C@@H](N)CCCCN)C(N)=O [KKPLLKKLLKKL]
MIC [19]: 1.56 µM and > 0.78 µM | MIC [20]: 25 µM (≈ 36.2 µg/mL) | MIC [21]: 1.56 µM (≈ 2.26 µg/mL)

Now from value to molecule:

MIC [22]: 25 µM (≈ 61.3 µg/mL) | MIC [23]: ≥ 50 µM | MIC [24]: 12.5 µM (≈ 30.6 µg/mL) | MIC [25]: 12.5 µM (≈ 30.6 µg/mL) | MIC [26]: 25 µM (≈ 61.3 µg/mL) | MIC [27]: 6.3 µM (≈ 15.4 µg/mL) | MIC [28]: 6.3 µM (≈ 15.4 µg/mL) | MIC [29]: 6.3 µM (≈ 15.4 µg/mL) | MIC [30]: 6.3 µM (≈ 15.4 µg/mL) | MIC [31]: 12.5 µM (≈ 30.6 µg/mL) | MIC [32]: ≥ 50 µM
Structure (SMILES): CC[C@H](C)[C@H](NC(=O)[C@@H](NC(=O)[C@H](Cc1cnc[nH]1)NC(=O)[C@H](CCCN=C(N)N)NC(=O)[C@H](C)NC(=O)[C@H](CCCN=C(N)N)NC(=O)[C@H](CC(C)C)NC(=O)[C@H](CO)NC(=O)[C@H](C)NC(=O)[C@H](CO)NC(=O)[C@H](CC(C)C)NC(=O)[C@@H](N)CC(N)=O)[C@@H](C)O)C(=O)N1CCC[C@H]1C(=O)N[C@@H](CCC(N)=O)C(=O)N[C@@H](CO)C(=O)N[C@@H](CCCN=C(N)N)C(=O)N[C@@H](CCCCN)C(=O)N[C@@H](Cc1ccccc1)C(=O)NCC(=O)N[C@@H](CCCN=C(N)N)C(=O)N[C@@H](CCCN=C(N)N)C(=O)O [NLSASLRARHTIPQSRKFGRR]

MIC [33]: 7.99 µM (≈ 26.1 µg/mL) | MIC [34]: 4.01 µM (≈ 13.1 µg/mL) | MIC (Escherichia coli 078): 7.99 µM (≈ 26.1 µg/mL) | MIC [10]: 1.99 µM and 3.83 µM | MIC [35]: 1.99 µM (≈ 6.5 µg/mL) | MIC [36]: 4.01 µM (≈ 13.1 µg/mL) | MIC [37]: 16 µM (≈ 52.2 µg/mL) | MIC (Escherichia coli ER2566): 0.49 µM (≈ 1.6 µg/mL) | MIC [38]: 16 µM (≈ 52.2 µg/mL) | MIC (Escherichia coli UB1005): 1.01 µM (≈ 3.3 µg/mL) | MIC [19]: 1.01 µM (≈ 3.3 µg/mL) | MIC [39]: 1.99 µM (≈ 6.5 µg/mL) | MIC [40]: 16 µM (≈ 52.2 µg/mL) | MIC [41]: 4.01 µM (≈ 13.1 µg/mL) | MIC [42]: 1.01 µM (≈ 3.3 µg/mL) | MIC [17]: 1.99 µM (≈ 6.5 µg/mL) | MIC (Escherichia coli K88): 1.99 µM (≈ 6.5 µg/mL) | MIC [43]: 7.99 µM (≈ 26.1 µg/mL) | MIC [44]: 4.01 µM (≈ 13.1 µg/mL)
Structure (SMILES): CC[C@H](C)[C@H](NC(=O)[C@H](CCCCN)NC(=O)[C@H](CCCN=C(N)N)NC(=O)[C@H](CC(C)C)NC(=O)[C@H](Cc1ccccc1)NC(=O)[C@H](CCCN=C(N)N)NC(=O)CNC(=O)[C@H](Cc1ccccc1)NC(=O)[C@@H](N)CCCN=C(N)N)C(=O)N[C@@H](CCCN=C(N)N)C(=O)N[C@@H](CCCN=C(N)N)C(=O)N[C@@H](Cc1ccccc1)C(=O)N[C@@H](CCCN=C(N)N)C(=O)N1CCC[C@H]1C(=O)N[C@@H](CCCCN)C(=O)N[C@H](C(=O)N[C@H](C(=O)N[C@H](C(=O)N[C@H](C(=O)N[C@H](C(=O)N[C@@H](CCC(N)=O)C(=O)NCC(=O)N[C@@H](CO)C(=O)N[C@@H](C)C(=O)N[C@@H](CCCN=C(N)N)C(=O)N[C@@H](Cc1ccccc1)C(=O)NCC(N)=O)[C@@H](C)CC)[C@@H](C)O)[C@@H](C)CC)[C@@H](C)O)C(C)C [RFGRFLRKIRRFRPKVTITIQGSARFG]
